# Measurements taken from the SangsterLogP compilation.
row,Structure (SMILES),logP
1,CCCC(CCC)=NNC(N)=Nc1ccccc1,2.33
2,NC(N)=N/N=C/c1cccs1,0.98
3,CCCCCC(CCC)=NNC(=N)N,2.17
4,CCCC(CCC)=NNC(=N)N,1.73
5,CC(=NN=C(N)N)c1cccs1,1.05
6,NC(N)=N/N=C(\c1ccccc1)c1cccs1,1.96
7,N=C(N)NN=Cc1ccccc1,1.18
8,CCCCCC/C(C)=N\N=C(N)N,2.08

# Further lines, results first:
row,logP,Structure (SMILES)
1,0.99,NC(=Nc1ccccc1)NN=Cc1ccc2ccccc2n1
2,2.18,C/C(=N/N/C(N)=N/c1ccccc1)c1ccccc1
3,2.05,CCCCC(C)=NNC(N)=Nc1ccccc1
4,2.08,CCC/C(=N\NC(N)=Nc1ccccc1)c1ccccc1
